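Each compound was tested at five concentrations against cells in 96-well plates for 48 hours. TGI is the concentration that stops growth completely.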
How the values were obtained:
Assay in all cases: inhibition of tumour cell growth, NCI panel, 48 h
HCT-116 colon = test system: HCT-116 colon
DMS 114 small cell lung = test system: DMS 114 small cell lung
NCI-H522 lung = test system: NCI-H522 lung
SF-268 CNS = test system: SF-268 CNS
SF-539 CNS = test system: SF-539 CNS
HOP-18 NSCLC = test system: HOP-18 NSCLC
UACC-62 melanoma = test system: UACC-62 melanoma
XF 498 CNS = test system: XF 498 CNS
IGROV1 ovarian = test system: IGROV1 ovarian
SK-MEL-28 melanoma = test system: SK-MEL-28 melanoma
KM20L2 colon = test system: KM20L2 colon
RXF 393 renal = test system: RXF 393 renal
COLO 205 colon = test system: COLO 205 colon
OVCAR-3 ovarian = test system: OVCAR-3 ovarian
786-0 renal = test system: 786-0 renal
OVCAR-5 ovarian = test system: OVCAR-5 ovarian
SW-620 colon = test system: SW-620 colon
A549 NSCLC = test system: A549 NSCLC
MOLT-4 leukemia = test system: MOLT-4 leukemia
LXFL 529 NSCLC = test system: LXFL 529 NSCLC
SK-MEL-2 melanoma = test system: SK-MEL-2 melanoma
OVCAR-4 ovarian = test system: OVCAR-4 ovarian
HT29 colon = test system: HT29 colon
SF-295 CNS = test system: SF-295 CNS
DLD-1 colon = test system: DLD-1 colon
LOX IMVI melanoma = test system: LOX IMVI melanoma
UACC-257 melanoma = test system: UACC-257 melanoma
OVCAR-8 ovarian = test system: OVCAR-8 ovarian
ACHN renal = test system: ACHN renal
SNB-75 CNS = test system: SNB-75 CNS
CAKI-1 renal = test system: CAKI-1 renal
SNB-19 CNS = test system: SNB-19 CNS
NCI-H226 lung = test system: NCI-H226 lung
CCRF-CEM leukemia = test system: CCRF-CEM leukemia
K-562 leukemia = test system: K-562 leukemia
RPMI-8226 leukemia = test system: RPMI-8226 leukemia
HCC-2998 colon = test system: HCC-2998 colon
HOP-62 NSCLC = test system: HOP-62 NSCLC
M19-MEL melanoma = test system: M19-MEL melanoma
SK-OV-3 ovarian = test system: SK-OV-3 ovarian
SN12C renal = test system: SN12C renal
M14 melanoma = test system: M14 melanoma
MALME-3M melanoma = test system: MALME-3M melanoma
TK-10 renal = test system: TK-10 renal
NCI-H23 lung = test system: NCI-H23 lung
UO-31 renal = test system: UO-31 renal
HCT-15 colon = test system: HCT-15 colon
NCI-H460 lung = test system: NCI-H460 lung
U251 CNS = test system: U251 CNS
EKVX NSCLC = test system: EKVX NSCLC
DMS 273 small cell lung = test system: DMS 273 small cell lung
SNB-78 CNS = test system: SNB-78 CNS
SK-MEL-5 melanoma = test system: SK-MEL-5 melanoma
BT-549 breast = test system: BT-549 breast
PC-3 prostate = test system: PC-3 prostate
MDA-MB-231 breast = test system: MDA-MB-231 breast
DU-145 prostate = test system: DU-145 prostate
MDA-N = test system: MDA-N
A498 renal = test system: A498 renal
HOP-92 NSCLC = test system: HOP-92 NSCLC
T-47D breast = test system: T-47D breast
HS 578T breast = test system: HS 578T breast
KM12 colon = test system: KM12 colon
HL-60(TB) leukemia = test system: HL-60(TB) leukemia
MDA-MB-435 = test system: MDA-MB-435
SR leukemia = test system: SR leukemia

O=C(O)[C@@H](NS(=O)(=O)c1ccc(F)cc1)c1ccccc1
TGI (HCT-116 colon): > 100000 nM
TGI (DMS 114 small cell lung): > 100000 nM
TGI (NCI-H522 lung): > 100000 nM
TGI (SF-268 CNS): > 100000 nM
TGI (SF-539 CNS): > 100000 nM
TGI (HOP-18 NSCLC): > 100000 nM
TGI (UACC-62 melanoma): > 100000 nM
TGI (XF 498 CNS): > 100000 nM
TGI (IGROV1 ovarian): > 100000 nM
TGI (SK-MEL-28 melanoma): > 100000 nM
TGI (KM20L2 colon): > 100000 nM
TGI (RXF 393 renal): > 100000 nM
TGI (COLO 205 colon): > 100000 nM
TGI (OVCAR-3 ovarian): > 100000 nM
TGI (786-0 renal): > 100000 nM
TGI (OVCAR-5 ovarian): > 100000 nM
TGI (SW-620 colon): > 100000 nM
TGI (A549 NSCLC): > 100000 nM
TGI (MOLT-4 leukemia): > 100000 nM
TGI (LXFL 529 NSCLC): > 100000 nM
TGI (SK-MEL-2 melanoma): > 100000 nM
TGI (OVCAR-4 ovarian): > 100000 nM
TGI (HT29 colon): > 100000 nM
TGI (SF-295 CNS): > 100000 nM
TGI (DLD-1 colon): > 100000 nM
TGI (LOX IMVI melanoma): > 100000 nM
TGI (UACC-257 melanoma): > 100000 nM
TGI (OVCAR-8 ovarian): > 100000 nM
TGI (ACHN renal): > 100000 nM
TGI (SNB-75 CNS): > 100000 nM
TGI (CAKI-1 renal): > 100000 nM
TGI (SNB-19 CNS): > 100000 nM
TGI (NCI-H226 lung): > 100000 nM
TGI (CCRF-CEM leukemia): > 100000 nM
TGI (K-562 leukemia): > 100000 nM
TGI (RPMI-8226 leukemia): > 100000 nM
TGI (HCC-2998 colon): > 100000 nM
TGI (HOP-62 NSCLC): > 100000 nM
TGI (M19-MEL melanoma): > 100000 nM
TGI (SK-OV-3 ovarian): > 100000 nM
TGI (SN12C renal): > 100000 nM
TGI (M14 melanoma): > 100000 nM
TGI (MALME-3M melanoma): > 100000 nM
TGI (TK-10 renal): > 100000 nM
TGI (NCI-H23 lung): > 100000 nM
TGI (UO-31 renal): > 100000 nM
TGI (HCT-15 colon): > 100000 nM
TGI (NCI-H460 lung): > 100000 nM
TGI (U251 CNS): > 100000 nM
TGI (EKVX NSCLC): > 100000 nM
TGI (DMS 273 small cell lung): > 100000 nM
TGI (SNB-78 CNS): > 100000 nM
TGI (SK-MEL-5 melanoma): > 100000 nM

COc1cccc2c1C(=O)c1c(O)c3c(c(O)c1C2=O)C[C@@](O)(C(=O)CO)C[C@@H]3OC1CC(N(C)C)C(O)C(C)O1 (stereo partly drawn)
TGI (HCT-116 colon): 12300 nM
TGI (DMS 114 small cell lung): 204 nM
TGI (NCI-H522 lung): 92.2 nM
TGI (SF-268 CNS): 360 nM
TGI (SF-539 CNS): 121 nM
TGI (BT-549 breast): 556 nM
TGI (HOP-18 NSCLC): 2950 nM
TGI (UACC-62 melanoma): 26.1 nM
TGI (XF 498 CNS): 55.3 nM
TGI (IGROV1 ovarian): 183 nM
TGI (SK-MEL-28 melanoma): 168 nM
TGI (KM20L2 colon): 591 nM
TGI (RXF 393 renal): 82.7 nM
TGI (PC-3 prostate): 102 nM
TGI (COLO 205 colon): 18.6 nM
TGI (OVCAR-3 ovarian): 858 nM
TGI (MDA-MB-231 breast): 615 nM
TGI (786-0 renal): 1510 nM
TGI (DU-145 prostate): 803 nM
TGI (MDA-N): 83.3 nM
TGI (OVCAR-5 ovarian): 352 nM
TGI (SW-620 colon): 1380 nM
TGI (A549 NSCLC): 785 nM
TGI (MOLT-4 leukemia): 299 nM
TGI (A498 renal): < 19.5 nM
TGI (LXFL 529 NSCLC): 1600 nM
TGI (HOP-92 NSCLC): 312 nM
TGI (SK-MEL-2 melanoma): 88.5 nM
TGI (OVCAR-4 ovarian): 266 nM
TGI (HT29 colon): 1820 nM
TGI (SF-295 CNS): 173 nM
TGI (DLD-1 colon): 176 nM
TGI (LOX IMVI melanoma): 10.2 nM
TGI (T-47D breast): 96.9 nM
TGI (HS 578T breast): 34.4 nM
TGI (UACC-257 melanoma): 153 nM
TGI (OVCAR-8 ovarian): 1520 nM
TGI (ACHN renal): 96.6 nM
TGI (SNB-75 CNS): 138 nM
TGI (CAKI-1 renal): 73.3 nM
TGI (SNB-19 CNS): 649 nM
TGI (NCI-H226 lung): 81.4 nM
TGI (CCRF-CEM leukemia): 7590 nM
TGI (K-562 leukemia): 9410 nM
TGI (RPMI-8226 leukemia): 825 nM
TGI (HCC-2998 colon): 258 nM
TGI (KM12 colon): 338 nM
TGI (HOP-62 NSCLC): 272 nM
TGI (HL-60(TB) leukemia): 20.6 nM
TGI (SK-OV-3 ovarian): 1760 nM
TGI (SN12C renal): 1140 nM
TGI (M14 melanoma): 104 nM
TGI (MDA-MB-435): 165 nM
TGI (MALME-3M melanoma): 57.6 nM
TGI (TK-10 renal): 2280 nM
TGI (NCI-H23 lung): 94.6 nM
TGI (UO-31 renal): 427 nM
TGI (HCT-15 colon): 765 nM
TGI (NCI-H460 lung): 16.7 nM
TGI (U251 CNS): 2750 nM
TGI (EKVX NSCLC): 413 nM
TGI (DMS 273 small cell lung): 158 nM
TGI (SNB-78 CNS): 645 nM
TGI (SR leukemia): 18.8 nM
TGI (SK-MEL-5 melanoma): 45.5 nM

COC(=O)/C(C#N)=C1\CCC(OC)N1 (stereo not drawn)
TGI (HCT-116 colon): > 100000 nM
TGI (DMS 114 small cell lung): > 100000 nM
TGI (NCI-H522 lung): > 100000 nM
TGI (SF-268 CNS): > 100000 nM
TGI (SF-539 CNS): > 100000 nM
TGI (HOP-18 NSCLC): > 100000 nM
TGI (UACC-62 melanoma): > 100000 nM
TGI (XF 498 CNS): > 100000 nM
TGI (IGROV1 ovarian): > 100000 nM
TGI (SK-MEL-28 melanoma): > 100000 nM
TGI (KM20L2 colon): > 100000 nM
TGI (RXF 393 renal): > 100000 nM
TGI (COLO 205 colon): > 100000 nM
TGI (OVCAR-3 ovarian): > 100000 nM
TGI (786-0 renal): > 100000 nM
TGI (OVCAR-5 ovarian): > 100000 nM
TGI (SW-620 colon): > 100000 nM
TGI (A549 NSCLC): > 100000 nM
TGI (MOLT-4 leukemia): > 100000 nM
TGI (LXFL 529 NSCLC): > 100000 nM
TGI (SK-MEL-2 melanoma): > 100000 nM
TGI (OVCAR-4 ovarian): > 100000 nM
TGI (HT29 colon): > 100000 nM
TGI (SF-295 CNS): > 100000 nM
TGI (DLD-1 colon): > 100000 nM
TGI (LOX IMVI melanoma): > 100000 nM
TGI (UACC-257 melanoma): > 100000 nM
TGI (OVCAR-8 ovarian): > 100000 nM
TGI (ACHN renal): > 100000 nM
TGI (SNB-75 CNS): > 100000 nM
TGI (CAKI-1 renal): > 100000 nM
TGI (SNB-19 CNS): > 100000 nM
TGI (NCI-H226 lung): > 100000 nM
TGI (CCRF-CEM leukemia): > 100000 nM
TGI (K-562 leukemia): > 100000 nM
TGI (RPMI-8226 leukemia): > 100000 nM
TGI (HCC-2998 colon): > 100000 nM
TGI (KM12 colon): > 100000 nM
TGI (HOP-62 NSCLC): > 100000 nM
TGI (M19-MEL melanoma): > 100000 nM
TGI (HL-60(TB) leukemia): > 100000 nM
TGI (SK-OV-3 ovarian): > 100000 nM
TGI (SN12C renal): > 100000 nM
TGI (M14 melanoma): > 100000 nM
TGI (MALME-3M melanoma): > 100000 nM
TGI (TK-10 renal): > 100000 nM
TGI (NCI-H23 lung): > 100000 nM
TGI (UO-31 renal): > 100000 nM
TGI (HCT-15 colon): > 100000 nM
TGI (NCI-H460 lung): > 100000 nM
TGI (U251 CNS): > 100000 nM
TGI (EKVX NSCLC): > 100000 nM
TGI (DMS 273 small cell lung): > 100000 nM
TGI (SNB-78 CNS): > 100000 nM
TGI (SK-MEL-5 melanoma): > 100000 nM
